One data set concerns the target T1, recombinant human P-Rex1 (Homo sapiens, UniProt Q8TCU6, A1118T/K1340E).
T1 construct: made in house; host or cells: Sf9 cells (baculovirus, pAc0G1 vector)
The data set can be described thus: Rac-GEF assay for recombinant P-Rex1 ([35S]-GTPγS loading of EE-Rac1, liposomes). In kind it is biochemical. How it is done:
Liposomes (phosphatidylcholine (PtdCho), phosphatidylserine (PtdS), phosphatidylinositol (PtdIns), final assay concentration 200 μM each) were sonicated in lipid buffer (20 mM Hepes/NaOH pH 7.5 (4° C.), 100 mM NaCl, 1 mM EGTA) with or without PtdIns(3,4,5)P3 (final assay concentration 10 μM) and incubated for 10 min on ice with 2 μl of purified, GDP-loaded, recombinant, lipid-modified EE-Rac1 in 5 mM MgCl2, 50 mg/ml BSA, 5 mM DTT, 20 mM Hepes/NaOH pH 7.5 (4° C.), 100 mM NaCl, 1 mM EGTA (final assay concentration 100 nM EE-Rac1, 0.0024% cholate). Then 4 μl of Rac-GEF activity (cytosol, column fractions, or recombinant P-Rex1) was added, followed by 2 μl of GTPγS (in lipid buffer, final assay concentration 5 μM, including 1 μCi [^35S]-GTPγS). After 10 min at 30° C., the reaction was stopped and EE-Rac1 pulled down using anti-EE antibodies coupled to protein G-sepharose, and [^35S]-GTPγS-loading of Rac was detected by scintillation β-counting. Recombinant P-Rex1 was diluted in ‘buffer A’ (20 mM Hepes/NaOH pH 7.5 (4° C.), 1% betaine, 0.01% Na azide, 0.5 mM EGTA, 200 mM KCl, 10% ethylene glycol) to a final assay concentration of 50 nM. In assays with Gβγ, 2 μl of Gβγ in ‘buffer A’ were added to the liposome/Rac mix before the 10 min on ice, and P-Rex1 was added as 5×.
For orientation: GTPγS resists hydrolysis and so accumulates on activated G proteins.

Data set [1] can be described thus: Inositol polyphosphate 4-phosphatase (lipid phosphatase) assay. The data set is classed as biochemical. As to conditions: P-Rex1 up to 1.45 μM.
A further data set deals with PAE cells. The data set can be described thus: Immunofluorescence microscopy of lamellipodia formation in myc-P-Rex1 transfected PAE cells. In kind it is cell-based, pig. How it is done: Pig aortic endothelial (PAE) cells were transiently transfected with pCMV3-myc-P-Rex1 or pCMV3-myc-DAPP1 by electroporation, grown on coverslips for 10 h and then serum starved for 8 h. They were then treated or not with 100 nM wortmannin for 10 min followed by stimulation with varying doses of PDGF for 5 min. Cells were fixed and prepared for immunofluorescence microscopy by staining of P-Rex1 and DAPP1 with anti-myc epitope-tag primary and FITC-goat anti-mouse secondary antibodies and filamentuous actin with TRITC-phalloidin as previously described (Welch et al. 1998).

The nature of data set [2]: Protein phosphatase assay with para-nitrophenolphosphate. The data set is classed as biochemical. Conditions: P-Rex1 up to 192 nM. The text has this: We also used para-nitrophenolphosphate as a broad-spectrum substrate in a protein phosphatase assay, using calf intestinal alkaline phosphatase and MEG-2 tyrosine phosphatase as controls.
The next data set deals with P-Rex1. Briefly: Surface plasmon resonance (Biacore) binding of P-Rex1 to phospholipid vesicles. Further details: species or system human. Conditions: 6 mol-% phosphoinositide; 100 nM P-Rex1; FIG. 5C. How it is done: Assays were conducted as described (Ellson et al. 2001), using mixed phospholipid vesicles (PtdCho, PtdS, phosphatidylethanolamine (PtdE), 330 μM each final concentration) with or without added phosphoinositides (6 mol-% final concentration) to load the L1 vesicle capture chip (Biacore) prior to the injection of 100 nM purified recombinant Sf9-cell derived P-Rex1.
For orientation: Surface plasmon resonance follows binding to a sensor surface in real time, without labels.

A further data set deals with EE-Rac1. Briefly: Rac-GEF assay with neutrophil cytosol and membrane fractions. The data set is classed as biochemical. Conditions: PtdIns(3,4,5)P3 alone (30 μM); FIG. 1C. How it is done: This assay was essentially as for ROS production, except pure, lipid-modified EE-Rac1 (30-50 nM final concentration) was added to the cytosol, and GTP, GTPγS, NADPH, FAD and luminol omitted. Three min after mixing membrane and cytosol fractions, [α^32P]-GTP (20 μCi per sample) was added. Four min later, the reaction was stopped and EE-Rac1 pulled down using anti-EE antibody coupled to protein G sepharose. The total dpm on EE-Rac1 were quantified by scintillation counting (blanks without EE-Rac1 were subtracted).

Data set [3] relates to neutrophil cytosol and low-density membranes (ROS formation). The data set can be described thus: ROS formation assay with neutrophil cytosol and membrane fractions. The data set is classed as biochemical, pig. Conditions: added as liposomes, biological diastereoisomer; FIG. 1B. How it is done:
Neutrophil-enriched leukocytes were isolated from pigs' blood, sonicated in 0.25 M sucrose, 0.1 M KCl, 50 mM Hepes/NaOH pH 7.2 (4° C.), 1 mM DTT, 2 mM EGTA, 0.1 mM PMSF and 1× antiproteases (20 μg/ml of each antipain, aprotinin, pepstatin and leupetin) and centrifuged (100,000×g, 1 h, 4° C.) to yield cytosol and light membrane fractions (4.5 mg/ml protein, collected between 0.60 and 1.35 M sucrose and washed in sonication buffer). Light membranes (3 μl) were pre-mixed with Gβγ subunits, p101/p110γ-PI3K and/or N17-Rac (or boiled controls) in 6 μl containing 5 mM ATP, 8 mM MgCl2, 20 mM Hepes/NaOH pH 7.5 (4° C.), 2 mM EGTA, 10 mM β-glycerophosphate, 0.1 mM ortho-vanadate, 0.1 M KCl, 1 mM DTT, 0.01% (w/v) Na azide. After 25 min on ice, 20 μl was added containing 15 μl cytosol and 1 mM MgGTP, 20 μM FAD, 400 μM NADPH and 200 μM luminol. After 8 min at RT, single photon counts (SPC) per 0.1 min were quantitated in a scintillation counter at intervals of 3-5 min for up to 20 min (blanks without cytosol were subtracted). When lipids were added, they were preincubated with the membranes, and 10 μM GTPγS replaced MgGTP. Where wortmannin was added, it was preincubated with both cytosol and membrane fractions for 15 min on ice. Where EE-Rac1 was added, it was preloaded with different guanine nucleotides at a 5-fold excess over bound GDP.

T1 sequence (Q8TCU6 whole entry A1118T/K1340E): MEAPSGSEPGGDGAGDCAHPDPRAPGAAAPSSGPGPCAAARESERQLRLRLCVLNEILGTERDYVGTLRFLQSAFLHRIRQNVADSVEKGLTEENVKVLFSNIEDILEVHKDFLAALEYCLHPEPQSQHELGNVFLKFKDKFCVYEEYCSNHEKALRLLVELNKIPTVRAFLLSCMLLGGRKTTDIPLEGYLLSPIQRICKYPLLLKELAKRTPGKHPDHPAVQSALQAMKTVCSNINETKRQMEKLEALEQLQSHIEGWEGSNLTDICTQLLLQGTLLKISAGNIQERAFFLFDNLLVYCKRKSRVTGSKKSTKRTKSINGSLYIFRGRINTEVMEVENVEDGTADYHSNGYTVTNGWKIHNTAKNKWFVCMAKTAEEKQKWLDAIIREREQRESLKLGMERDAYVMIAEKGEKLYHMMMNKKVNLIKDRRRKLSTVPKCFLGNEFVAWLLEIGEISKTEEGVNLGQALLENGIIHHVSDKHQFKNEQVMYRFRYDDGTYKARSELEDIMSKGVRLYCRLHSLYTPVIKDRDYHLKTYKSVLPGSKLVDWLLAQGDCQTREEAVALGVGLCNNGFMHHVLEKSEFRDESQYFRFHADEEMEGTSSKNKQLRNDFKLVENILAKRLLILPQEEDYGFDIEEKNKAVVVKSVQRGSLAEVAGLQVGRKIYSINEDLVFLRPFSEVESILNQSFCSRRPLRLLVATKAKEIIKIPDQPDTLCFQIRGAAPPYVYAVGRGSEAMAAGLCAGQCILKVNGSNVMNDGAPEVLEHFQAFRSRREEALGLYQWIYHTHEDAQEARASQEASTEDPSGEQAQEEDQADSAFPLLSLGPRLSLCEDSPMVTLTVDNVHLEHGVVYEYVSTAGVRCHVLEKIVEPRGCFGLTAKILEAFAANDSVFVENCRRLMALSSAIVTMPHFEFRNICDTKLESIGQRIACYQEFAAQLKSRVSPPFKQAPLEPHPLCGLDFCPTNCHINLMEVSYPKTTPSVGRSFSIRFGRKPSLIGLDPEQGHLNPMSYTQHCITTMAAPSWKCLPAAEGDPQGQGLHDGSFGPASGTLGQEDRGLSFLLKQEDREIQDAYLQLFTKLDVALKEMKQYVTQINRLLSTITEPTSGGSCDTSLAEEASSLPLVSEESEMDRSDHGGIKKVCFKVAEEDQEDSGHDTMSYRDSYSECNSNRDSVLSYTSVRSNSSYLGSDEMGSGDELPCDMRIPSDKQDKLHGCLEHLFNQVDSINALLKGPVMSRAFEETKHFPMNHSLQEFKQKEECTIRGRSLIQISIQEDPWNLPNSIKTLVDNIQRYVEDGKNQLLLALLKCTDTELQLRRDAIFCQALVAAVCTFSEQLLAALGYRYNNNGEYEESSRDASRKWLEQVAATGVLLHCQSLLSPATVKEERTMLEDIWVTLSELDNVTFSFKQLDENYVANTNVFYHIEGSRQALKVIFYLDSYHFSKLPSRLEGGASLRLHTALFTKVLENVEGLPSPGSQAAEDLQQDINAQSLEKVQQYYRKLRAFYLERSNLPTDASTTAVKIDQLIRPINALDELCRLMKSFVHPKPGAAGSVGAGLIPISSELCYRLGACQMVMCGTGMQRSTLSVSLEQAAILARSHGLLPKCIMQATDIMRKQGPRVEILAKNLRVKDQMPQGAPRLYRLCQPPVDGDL
P-Rex1, sequence (Q8TCU6 whole entry A1118T/K1340E): as above

Consider `C[C@H](CCC(=O)O)[C@H]1CC[C@H]2[C@@H]3[C@H](O)C[C@@H]4C[C@H](O)CC[C@]4(C)[C@H]3C[C@H](O)[C@]12C` [cholate], for which the “effect on P-Rex1 Rac-GEF activity in vitro” value at recombinant human P-Rex1 (FIG. 5D, 5E) is given as “strongly inhibits”.
For the compound “P-Rex1: novel 185 kD PtdIns(3,4,5)P3- and Gβγ-regulated guanine-nucleotide exchange factor for Rac (SEQ ID NO:1)”, the lipid phosphatase activity entry in data set [1] was “no lipid or protein phosphatase activity”. Further, in the data set on PAE cells (serum-starved, unstimulated cells transiently expressing myc-P-Rex1), the “myc-positive cells with strongly exaggerated lamellipodia ('fried eggs', V12-Rac-like phenotype)” value is “around 30%”. The protein phosphatase activity entry in data set [2] is “no lipid or protein phosphatase activity”.
As to PDGF, the “P-Rex1-positive cells exhibiting the V12-Rac-like phenotype” value with PAE cells (PDGF-stimulation for 5 min) came out at 80%.
As for PtdIns3P, the “P-Rex1 binding to phospholipid vesicles containing the phosphoinositide” value (shortened to “P-Rex1 binding”) with P-Rex1 was “only weakly”.
Turning to PtdIns4P, the “P-Rex1 binding” value with P-Rex1 was “only weakly”.
Regarding PtdIns5P, the “P-Rex1 binding” value in the data set with P-Rex1 is reported as “only weakly”.
Turning to PtdIns(3,4)P2, the “activation of P-Rex1 Rac-GEF activity by phosphoinositide” value on recombinant human P-Rex1 (phosphoinositides compared at 10 μM, FIG. 5B) is “weak activation”.
Regarding PtdIns(3,5)P2, in the data set with P-Rex1, the “P-Rex1 binding” value is “only weakly”.
With PtdIns(4,5)P2, the “P-Rex1 binding” value in the data set on P-Rex1 is “only weakly”.
Take “phosphatidylinositol(3,4,5)P3 [PtdIns(3,4,5)P3]”: the “activation of Rac1” value with EE-Rac1 was “stimulated activation”. The “P-Rex1 binding” value in the data set on P-Rex1 is on record as “substantially augmented”. Moreover, at recombinant human P-Rex1 (liposomes with PtdIns(3,4,5)P3 dose response, EE-Rac1, FIG. 5A, read-out: 50% maximal effect on Rac-GEF activity of P-Rex1), the EC50 was found to be 300 nM. The “activation of ROS formation” value in data set [3] is recorded as “potently activate”.

The record behind these values is patent US20060084790A1, “P-Rex1, a ptdins (3,4,5) p3-g-beta-gamma-regulated guanine-nucleotide exchange factor for rac” (The Babraham Institute, priority 2002, published 2006).
